Literature values as cited in patent publication US20010034325A1, “Dietary modulators of gamma glutamyl transpeptidase” (priority 2000, published 2001).

Experiments:
[1] = tested on: GGT; conditions: 12-o-tetradecanoyl phorbol-13-acetate induced activity
[2] = molecular target: GGTP (Homo sapiens, UniProt P19440); conditions: Misra et al. 1996
Sequence of GGTP (P19440 whole entry): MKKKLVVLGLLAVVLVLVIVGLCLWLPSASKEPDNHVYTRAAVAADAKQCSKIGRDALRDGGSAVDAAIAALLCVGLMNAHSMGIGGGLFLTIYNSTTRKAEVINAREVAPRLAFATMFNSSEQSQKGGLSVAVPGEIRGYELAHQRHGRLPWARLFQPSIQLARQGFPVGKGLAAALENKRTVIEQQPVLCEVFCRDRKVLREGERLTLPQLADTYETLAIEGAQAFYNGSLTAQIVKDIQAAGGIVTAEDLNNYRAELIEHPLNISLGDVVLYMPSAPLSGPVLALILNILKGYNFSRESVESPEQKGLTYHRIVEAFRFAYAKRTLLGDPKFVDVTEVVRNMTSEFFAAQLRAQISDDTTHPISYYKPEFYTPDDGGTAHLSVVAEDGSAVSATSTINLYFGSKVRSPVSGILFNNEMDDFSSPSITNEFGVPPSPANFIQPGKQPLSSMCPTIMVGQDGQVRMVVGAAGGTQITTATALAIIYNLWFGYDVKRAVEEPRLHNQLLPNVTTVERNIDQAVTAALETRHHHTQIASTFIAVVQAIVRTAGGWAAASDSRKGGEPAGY

| Compound | inhibition of GGT levels [1] | effect on diabetes [2] |
| --- | --- | --- |
| C=CCSCC=C [diallylsulfide (DAS), diallylsulfide] | inhibited significantly |  |
| N[C@H](C(=O)O)[C@@H]1CC(Cl)=NO1 [acivicin] |  | prevents overt diabetes |
| OCc1c[nH]c2ccccc12 [indole-3-carbinol (I3C), indole-3-carbinol] | inhibited significantly |  |
